Test results: ChEMBL document CHEMBL1201862, “PubChem BioAssay data set” (2004)
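Five concentrations, 48 hours, 96-well plates. GI50 = concentration required for 50% inhibition of growth.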 Calls of active or inactive are those of the source. No stated cut-off is given here; in the data, active = GI50 up to about 1.1 µM and inactive = higher.

Assays:
Experiment in all cases: DTP human tumour cell line panel, 48 h
[1] = test system: HOP-62
[2] = test system: HOP-92
[3] = test system: TK-10
[4] = test system: A498
[5] = test system: A549
[6] = test system: HCT-116
[7] = test system: OVCAR-5
[8] = test system: Hs-578T
[9] = test system: 786-0
[10] = test system: KM12
[11] = test system: CCRF-CEM
[12] = test system: NCI-H226
[13] = test system: MCF7
[14] = test system: SF-539
[15] = test system: UACC-257
[16] = test system: NCI-H23
[17] = test system: UO-31
[18] = test system: SR
[19] = test system: UACC-62
[20] = test system: DU-145
[21] = test system: K562
[22] = test system: SNB-75
[23] = test system: HT-29
[24] = test system: MOLT-4
[25] = test system: SK-OV-3
[26] = test system: SK-MEL-5
[27] = test system: OVCAR-3
[28] = test system: COLO 205
[29] = test system: NCI-H460
[30] = test system: NCI/ADR-RES
[31] = test system: SN12C
[32] = test system: EKVX
[33] = test system: M14
[34] = test system: LOX IMVI
[35] = test system: SNB-19
[36] = test system: BT-549
[37] = test system: SK-MEL-2
[38] = test system: CAKI-1
[39] = test system: IGROV-1
[40] = test system: ACHN
[41] = test system: HCT-15
[42] = test system: Malme-3M
[43] = test system: RPMI-8226
[44] = test system: SK-MEL-28
[45] = test system: OVCAR-4
[46] = test system: OVCAR-8
[47] = test system: NCI-H522
[48] = test system: SW-620
[49] = test system: T47D
[50] = test system: U-251
[51] = test system: MDA-MB-231
[52] = test system: MDA-MB-435
[53] = test system: HCC 2998
[54] = test system: PC-3
[55] = test system: SF-295
[56] = test system: HL-60

Clc1ccc(C(Cc2ccccc2)c2c(Cl)nc(N3CCNCC3)nc2Cl)cc1 (stereo unspecified)
GI50 [1]: 15.7 µM (inactive) | GI50 [2]: 8.57 µM (inactive) | GI50 [3]: 17.5 µM (inactive) | GI50 [4]: 11.9 µM (inactive) | GI50 [5]: 16.1 µM (inactive) | GI50 [6]: 8.38 µM (inactive) | GI50 [7]: 17.7 µM (inactive) | GI50 [8]: 14.8 µM (inactive) | GI50 [9]: 16.5 µM (inactive) | GI50 [10]: 7.89 µM (inactive) | GI50 [11]: 7.11 µM (inactive) | GI50 [12]: 22.8 µM (inactive) | GI50 [13]: 5.38 µM (inactive) | GI50 [14]: 14.5 µM (inactive) | GI50 [15]: 15.7 µM (inactive) | GI50 [16]: 18.2 µM (inactive) | GI50 [17]: 11.3 µM (inactive) | GI50 [18]: 1.63 µM (inactive) | GI50 [19]: 21 µM (inactive) | GI50 [20]: 14.5 µM (inactive) | GI50 [21]: 3.46 µM (inactive) | GI50 [22]: 14.1 µM (inactive) | GI50 [23]: 2.64 µM (inactive) | GI50 [24]: 4.01 µM (inactive) | GI50 [25]: 17.7 µM (inactive) | GI50 [26]: 14.7 µM (inactive) | GI50 [27]: 14.3 µM (inactive) | GI50 [28]: 1.73 µM (inactive) | GI50 [29]: 12.1 µM (inactive) | GI50 [30]: 15.8 µM (inactive) | GI50 [31]: 15.2 µM (inactive) | GI50 [32]: 17.9 µM (inactive) | GI50 [33]: 16.2 µM (inactive) | GI50 [34]: 3.46 µM (inactive) | GI50 [35]: 15.3 µM (inactive) | GI50 [36]: 21.3 µM (inactive) | GI50 [37]: 16.8 µM (inactive) | GI50 [38]: 5.13 µM (inactive) | GI50 [39]: 11.9 µM (inactive) | GI50 [40]: 13.6 µM (inactive) | GI50 [41]: 4.06 µM | GI50 [42]: 14.3 µM (inactive) | GI50 [43]: 13.7 µM (inactive) | GI50 [44]: 13.7 µM (inactive) | GI50 [45]: 18.6 µM (inactive) | GI50 [46]: 12.1 µM (inactive) | GI50 [47]: 12.4 µM (inactive) | GI50 [48]: 14.5 µM (inactive) | GI50 [49]: 12.8 µM (inactive) | GI50 [50]: 14 µM (inactive) | GI50 [51]: 12.8 µM (inactive) | GI50 [52]: 16.6 µM (inactive) | GI50 [53]: 6.3 µM (inactive) | GI50 [54]: 14.3 µM (inactive) | GI50 [55]: 19 µM (inactive) | GI50 [56]: 2.26 µM (inactive)
